This is an account of results in patent US9920059B2, “Heterocyclic compounds as pesticides” (BAYER CROPSCIENCE AKTIENGESELLSCHAFT, priority 2014, dated 2018).

The test system of data set [1] is green peach aphid (Myzus persicae). Put plainly: Myzus persicae spray test (MYZUPE), bell pepper plants. Particulars: after 6 days. Format: in vivo. The method, then: Myzus Persicae—Spray Test (MYZUPE) • Solvent: 7 parts by weight of dimethylformamide • Emulsifier: alkylaryl polyglycol ether To produce an appropriate active ingredient preparation, 1 part by weight of active ingredient is dissolved using the specified parts by weight of solvent and made up with water containing an emulsifier concentration of 1000 ppm until the desired concentration is attained. To produce further test concentrations, the preparation is diluted with emulsifier-containing water. If the addition of ammonium salts or/and penetrants is required, these are each added in a concentration of 1000 ppm to the preparation solution. Bell pepper plants (Capsicum annuum) severely infested with the green peach aphid (Myzus persicae) are treated by spraying with the active ingredient preparation in the desired concentration. After 6 days, the kill in % is determined. 100% means that all the aphids have been killed; 0% means that no aphids have been killed.

The nature of data set [2]: log P by HPLC on reversed-phase C18 columns, OECD Guideline 117. Format: physicochemical. As to conditions: for chromatographic logP: reversed-phase C18 HPLC column; for logP [a]: pH 2.7; for logP [b]: pH 7.8. The method, then: The log P values were determined in accordance with OECD Guideline 117 (EC Directive 92/69/EEC) by HPLC (high-performance liquid chromatography) using reversed-phase (RP) columns (C18), by the following methods: [a] The LC-MS determination in the acidic range is effected at pH 2.7 with 0.1% aqueous formic acid and acetonitrile (contains 0.1% formic acid) as eluents; linear gradient from 10% acetonitrile to 95% acetonitrile. [b] LC-MS determination in the neutral range is effected at pH 7.8 with 0.001 molar aqueous ammonium hydrogencarbonate solution and acetonitrile as eluents; linear gradient from 10% acetonitrile to 95% acetonitrile. Calibration is effected with unbranched alkan-2-ones (having 3 to 16 carbon atoms) with known log P values (log P values determined on the basis of the retention times by linear interpolation between two successive alkanones).

Data set [3] concerns green peach aphid (Myzus persicae). Put plainly: Myzus persicae spray test (MYZUPE), Chinese cabbage leaf discs. Type of data set: in vivo. Particulars: after 6 days. On the procedure:
Myzus persicae—Spray Test (MYZUPE)
• Solvent: 78 parts by weight of acetone • 1.5 parts by weight of dimethylformamide • Emulsifier: alkylaryl polyglycol ether
(§1) To produce an appropriate active ingredient preparation, 1 part by weight of active ingredient is dissolved using the specified parts by weight of solvent and made up with water containing an emulsifier concentration of 1000 ppm until the desired concentration is attained. To produce further test concentrations, the preparation is diluted with emulsifier-containing water.
Discs of Chinese cabbage leaves (Brassica pekinensis) infested with all stages of the green peach aphid (Myzus persicae) are sprayed with an active ingredient preparation of the desired concentration.
After 6 days, the efficacy in % is determined. 100% means that all the aphids have been killed; 0% means that none of the aphids have been killed.

Data set [4] deals with adult houseflies (Musca domestica). Put plainly: Musca domestica test (MUSCDO). Format: in vivo. As to conditions: application rate 100 ppm, after 2 days. The method, then: Musca domestica Test (MUSCDO) • Solvent: dimethyl sulphoxide To prepare an appropriate active ingredient preparation, 10 mg of active ingredient are mixed with 0.5 ml of dimethyl sulphoxide, and the concentrate is diluted with water to the desired concentration. Vessels containing a sponge treated with sugar solution and the active ingredient preparation of the desired concentration are populated with 10 adult houseflies (Musca domestica). After 2 days, the kill in % is determined. 100% means that all of the flies have been killed; 0% means that none of the flies have been killed.

In data set [5] the test system is greenhouse red spider mite (Tetranychus urticae). Put plainly: Tetranychus urticae spray test, OP-resistant (TETRUR), bean leaf discs. Format: in vivo. Particulars: application rate 500 g/ha, after 6 days. On the procedure:
Tetranychus urticae—Spray Test, OP-Resistant (TETRUR)
• Solvent: 78.0 parts by weight of acetone • 1.5 parts by weight of dimethylformamide • Emulsifier: alkylaryl polyglycol ether
as §1
Discs of bean leaves (Phaseolus vulgaris) infested with all stages of the greenhouse red spider mite (Tetranychus urticae) are sprayed with an active compound preparation of the desired concentration.
After 6 days, the efficacy in % is determined. 100% means that all the spider mites have been killed; 0% means that none of the spider mites have been killed.

Where [6] appears, read: acidic range, pH 2.7, 0.1% aqueous formic acid/acetonitrile, read-out: log P[a].
Setting [7] is: neutral range, pH 7.8, ammonium hydrogencarbonate/acetonitrile, read-out: log P[b].
Where [8] appears, read: acidic range, NMR peak list table.
The mark [9] stands for this setting: neutral range, NMR peak list table.

Where two headings read alike, the source gives them in different places.

For `Cc1cc(F)c(-n2cnc3nn(-c4cccnc4)cc3c2=O)cc1SCC(F)(F)F` [I-1-1, 5-{2-Fluoro-4-methyl-5-[(2,2,2-trifluoroethyl)sulphanyl]phenyl}-2-(pyridin-3-yl)-2,5-dihydro-4H-pyrazolo[3,4-d]pyrimidin-4-one], the “efficacy (kill in %)” value in data set [1] (application rate 20 ppm) was found to be 100%. Also, the chromatographic logP in data set [2] (setting [6]) was found to be 2.65; in data set [2] (setting [7]) it was 2.63.
On to `Cc1cc(F)c(-n2nnc3nn(-c4cccnc4)cc3c2=O)cc1[S+]([O-])CC(F)(F)F` (stereo not drawn) [I-1-2, 3-[2-Fluoro-4-methyl-5-(2,2,2-trifluoroethylsulphinyl)phenyl]-6-(3-pyridyl)pyrazolo[3,4-d]triazin-4-one], for which the efficacy in % in data set [3] (application rate 500 g/ha) turned out to be 100%. The “efficacy (kill in %)” value in data set [4] is 80%. The chromatographic logP in data set [2] (setting [6]) was found to be 2.22; in data set [2] (setting [7]), 2.19.
The like results for `Cc1cc(F)c(-n2nnc3nn(-c4cccnc4)cc3c2=O)cc1SCC(F)(F)F` [I-1-3, 3-[2-fluoro-4-methyl-5-(2,2,2-trifluoroethylsulphanyl)phenyl]-6-(3-pyridyl)pyrazolo[3,4-d]triazin-4-one] were, in that order, 100%, 80%, 3.18 and 3.14.
`Cc1cc(F)c(-n2cnc3nn(-c4cccnc4)cc3c2=O)cc1[S+]([O-])CC(F)(F)F` (stereo not drawn) [I-1-4, 5-{2-Fluoro-4-methyl-5-[(2,2,2-trifluoroethyl)sulphinyl]phenyl}-2-(pyridin-3-yl)-2,5-dihydro-4H-pyrazolo[3,4-d]pyrimidin-4-one]: the efficacy in % in data set [5] and in data set [3] (application rate 500 g/ha) was 100% in each case. The chromatographic logP in data set [2] (setting [6]) came out at 1.79; in data set [2] (setting [7]) it was 1.78.
The molecule `Cc1cc(F)c(-n2cnc3nn(-c4ccc[n+]([O-])c4)cc3c2=O)cc1[S+]([O-])CC(F)(F)F` (stereo not drawn) [I-1-5, 5-{2-Fluoro-4-methyl-5-[(2,2,2-trifluoroethyl)sulphinyl]phenyl}-2-(1-oxidopyridin-1-ium-3-yl)pyrazolo[3,4-d]pyrimidin-4-one] gave an efficacy in % in data set [3] (application rate 500 g/ha) of 100%. Besides, the values for the chromatographic logP in data set [2] (setting [6]) and in data set [2] (setting [7]) were 1.39 and 1.33, respectively.
In data set [3] (application rate 500 g/ha), `CSc1cccc(-n2cnc3nn(-c4cccnc4)cc3c2=O)c1` [I-1-6] yielded an efficacy in % of 90%. In data set [2] (acidic range, Table 2), the “logP [a]” value is 1.82. For the same molecule, the “logP [b]” value in data set [2] (neutral range, Table 2) amounted to 1.78.
In the same order, the values of `Cc1ccc(-n2cnc3nn(-c4cccnc4)cc3c2=O)cc1SCC(F)(F)F` [I-1-7] are 90%, 2.51 and 2.56.
The like results for `Cc1ccc(-n2cnc3nn(-c4cccnc4)cc3c2=O)cc1[S+]([O-])CC(F)(F)F` (stereo not drawn) [I-1-8] were, in that order, 90%, 1.65 and 1.67.
In the case of `O=c1c2cn(-c3cccnc3)nc2ncn1-c1cc(SCC(F)(F)F)ccc1F` [I-1-9], the efficacy in % in data set [3] (application rate 100 g/ha) was found to be 90%. Moreover, the “logP [a]” value in data set [2] (acidic range, Table 2) was found to be 2.32. For the same molecule, the “logP [b]” value in data set [2] (neutral range, Table 2) worked out at 2.35.
For the molecule `O=c1c2cn(-c3cccnc3)nc2ncn1-c1cc([S+]([O-])CC(F)(F)F)ccc1F` (stereo not drawn) [I-1-10], the efficacy in % in data set [3] (application rate 500 g/ha) came out at 100%. Moreover, the “logP [a]” value in data set [2] (acidic range, Table 2) is 1.53. Also, in data set [2] (neutral range, Table 2), the “logP [b]” value worked out at 1.55.
The molecule `O=c1c2cn(-c3cccnc3)nc2ncn1-c1cccc(SCC2CC2)c1` [I-1-11] had an efficacy in % in data set [3] (application rate 500 g/ha) of 100%. Further, the “logP [a]” value in data set [2] (setting [8]) was found to be 2.50. For the same molecule, the “logP [b]” value in data set [2] (setting [9]) was found to be 2.41.
In the same order, the values of `O=c1c2cn(-c3cccnc3)nc2ncn1-c1cccc(SCC(F)(F)F)c1` [I-1-12] are 90%, 2.25 and 2.18.
With `O=c1c2cn(-c3cccnc3)nc2ncn1-c1cc(SCC(F)(F)F)c(Cl)cc1F` [I-1-13], the “efficacy (kill in %)” value in data set [1] (application rate 4 ppm) is recorded as 100%. Besides, the “logP [a]” value in data set [2] (setting [8]) was 2.70. In addition, the “logP [b]” value in data set [2] (setting [9]) came out at 2.65.
Molecule `O=c1c2cn(-c3cccnc3)nc2ncn1-c1cc(SCC(F)(F)F)c(Cl)cc1Cl` [I-1-14] showed an efficacy in % in data set [3] (application rate 500 g/ha) of 90%. For the same molecule, the “logP [a]” value in data set [2] (setting [8]) amounted to 2.91. The “logP [b]” value in data set [2] (setting [9]) turned out to be 2.83.
In the same order, the values of `O=c1c2cn(-c3ccc[n+]([O-])c3)nc2ncn1-c1cc([S+]([O-])CC(F)(F)F)c(Cl)cc1Cl` (stereo not drawn) [I-1-15] are 90%, 1.66 and 1.67.
For the molecule `O=c1c2cn(-c3cccnc3)nc2ncn1-c1cccc([S+]([O-])CC(F)(F)F)c1` (stereo not drawn) [I-1-16], in data set [3] (application rate 500 g/ha), the efficacy in % is reported as 90%. Further, the “logP [a]” value in data set [2] (setting [8]) was 1.46. Further, the “logP [b]” value in data set [2] (setting [9]) came out at 1.41.
For `Cc1cc(C)c(-n2cnc3nn(-c4cccnc4)cc3c2=O)cc1SCC(F)(F)F` [I-1-17], the efficacy in % in data set [3] (application rate 500 g/ha) is given as 90%. For the same molecule, in data set [2] (setting [8]), the “logP [a]” value worked out at 2.75. For the same molecule, the “logP [b]” value in data set [2] (setting [9]) was 2.72.
Consider `O=c1c2cn(-c3cccnc3)nc2ncn1-c1cc([S+]([O-])CC(F)(F)F)c(Cl)cc1F` (stereo not drawn) [I-1-18], for which the efficacy in % in data set [3] (application rate 500 g/ha) is on record as 90%. Further, in data set [2] (setting [8]), the “logP [a]” value came out at 2.02. The “logP [b]” value in data set [2] (setting [9]) is reported as 1.94.
For the molecule `O=c1c2cn(-c3cccnc3)nc2ncn1-c1cc([S+]([O-])CC(F)(F)F)c(Cl)cc1Cl` (stereo not drawn) [I-1-19], the efficacy in % in data set [3] (application rate 500 g/ha) worked out at 90%. Further, the “logP [a]” value in data set [2] (setting [8]) came to 2.17. Further, the “logP [b]” value in data set [2] (setting [9]) was determined as 2.09.
With `Cc1cc(C)c([S+]([O-])CC(F)(F)F)cc1-n1cnc2nn(-c3cccnc3)cc2c1=O` (stereo not drawn) [I-1-20], the efficacy in % in data set [5] and in data set [3] (application rate 20 g/ha) was 90% each time. Besides, the “logP [a]” value in data set [2] (setting [8]) was determined as 1.84. Besides, the “logP [b]” value in data set [2] (setting [9]) turned out to be 1.79.
With `O=c1c2cn(-c3cccnc3)nc2ncn1-c1cccc([S+]([O-])CC2CC2)c1` (stereo not drawn) [I-1-21], in data set [3] (application rate 500 g/ha), the efficacy in % is given as 90%. Besides, the “logP [a]” value in data set [2] (setting [8]) amounted to 1.27. Further, in data set [2] (setting [9]), the “logP [b]” value amounted to 1.32.
The like results for `Cc1cc(F)c(-n2c(C)nc3nn(-c4cccnc4)cc3c2=O)cc1SCC(F)(F)F` [I-1-22] were, in that order, 90%, 2.74 and 2.69.
In the same order, the values of `CSc1ccccc1-n1cnc2nn(-c3cccnc3)cc2c1=O` [I-2-23] are 90%, 1.65 and 1.67.
As to `Cc1cc(F)c(NC(=O)c2cn(-c3cccnc3)nc2N)cc1SCC(F)(F)F` [II-1, 3-Amino-N-{2-fluoro-4-methyl-5-[(2,2,2-trifluoroethyl)sulphanyl]phenyl}-1-(pyridin-3-yl)-1H-pyrazole-4-carboxamide], the chromatographic logP turned out to be 2.72 in data set [2] (setting [6]) and 2.63 in data set [2] (setting [7]).
